Test results: PMC12002301, “Discovery and functional characterization of a bombesin-type neuropeptide signaling system in an invertebrate” (Proceedings of the National Academy of Sciences of the …, 2025)

System: cardiac stomach preparations
Assay: In vitro contraction of cardiac stomach preparations
Parameters: species or system Asterias rubens
Conditions: words, ArBN 10^-9 to 10^-6 M
Protocol: ArBN (EPRRNYNRVFGPTY-NH2), ArBN5-14 (NYNRVFGPTY-NH2), and ArBNP65-81 (EPMPSSLALYIANLSP-NH2), were tested for effects on in vitro cardiac stomach and tube foot preparations from A. rubens. The preparations were dissected as described previously ([43], [59]–[61]), with the organs immersed in ice-cold artificial seawater during dissection. A description of the methods employed for investigation of in vitro effects of ArBN on cardiac stomach and tube foot preparations from A. rubens is included in SI Appendix, SI Methods. […]
Wax was removed from slides using xylene (3 × 10 min) and then slides were immersed in 100% ethanol (2 × 10 min). 0.3% hydrogen peroxide (VWR Chemicals, UK) in methanol was used to quench endogenous peroxidases for 30 min and then an ethanol series (90%, 70%, 50%), distilled water and PBST were used to rehydrate the tissue sections. 5% goat serum (Sigma-Aldrich, UK) made up in PBST was used for blocking for 2 h at room temperature. […]
All the dissected preparations were set up in an aerated organ bath filled with 20 ml artificial seawater maintained at approximately 11°C. Changes in the contractile state of preparations were detected by the transducer, which was linked via a bridge amplifier (FE221 Bridge Amp, ADInstruments Ltd, Oxford, UK) to data acquisition hardware (PowerLab 2/36, ADInstruments Ltd, Oxford, UK). […]

Substance	effect on cardiac stomach preparations
NYNRVFGPTY-NH2 [ArBN5-14, C-terminally amidated 10-residue peptide corresponding to the C-terminal region of ArBN]	neither ArBN5-14 nor ArBNP65-81 had any observable effect
EPMPSSLALYIANLSP-NH2 [ArBNP65-81, C-terminally amidated 16-residue peptide predicted to be derived from residues 65 to 81 of ArBNP]	neither ArBN5-14 nor ArBNP65-81 had any observable effect
